Consider 29 compounds from publication PMC2248166, “Quantitative peptide binding motifs for 19 human and mouse MHC class I molecules derived using positional scanning combinatorial peptide libraries” (Immunome Research, 2008).

For the assay, the target named is HLA B*0801 (Homo sapiens, UniProt P01889, A93T/A95T/D138N/E176V/E187T/K202T/Q94N/R180D/S35A/V36M/Y33D/Y91F). As to the kind of experiment: biochemical. The assay is classed as binding.

Where a SMILES comes first, the peptide text is derived from it.

`CC[C@H](C)[C@H](NC(=O)[C@H](Cc1ccccc1)NC(=O)[C@H](Cc1ccccc1)NC(=O)[C@@H](N)CCSC)C(=O)N[C@@H](CCCNC(=N)N)C(=O)N[C@@H](Cc1ccccc1)C(=O)NCC(=O)N[C@@H](CCCCN)C(=O)N[C@@H](CCSC)C(=O)O` [3102.0559] (H-MFFIRFGKM-OH) had an IC50 of 32 nM.

In the case of `CSCC[C@H](NC(=O)[C@H](C)NC(=O)[C@H](CC(C)C)NC(=O)[C@H](CO)NC(=O)[C@H](CCCCN)NC(=O)[C@H](CCSC)NC(=O)[C@H](CCCNC(=N)N)NC(=O)[C@H](CCCCN)NC(=O)[C@@H](N)CC(=O)O)C(=O)O` [3102.0560] (H-DKRMKSLAM-OH), half-maximal inhibition (IC50) required 9.9 nM.

For the compound `CC[C@H](C)[C@H](NC(=O)[C@H](C)NC(=O)[C@H](CC(C)C)NC(=O)[C@@H](NC(=O)[C@H](CCCCN)NC(=O)[C@H](CCCNC(=N)N)NC(=O)[C@H](CCCCN)NC(=O)[C@H](CC(N)=O)NC(=O)[C@@H](N)CO)C(C)C)C(=O)O` [3102.0561] (H-SNKRKVLAI-OH), it took 1.9 nM to reach half-maximal inhibition (IC50).

`CC(C)C[C@H](NC(=O)[C@H](CS)NC(=O)[C@H](CCC(=O)O)NC(=O)[C@H](CCCCN)NC(=O)[C@H](Cc1c[nH]cn1)NC(=O)[C@H](CC(C)C)NC(=O)[C@H](CCCNC(=N)N)NC(=O)[C@H](CC(N)=O)NC(=O)[C@@H](N)CCC(=O)O)C(=O)O` [3102.0562] (H-ENRLHKECL-OH) returned an IC50 of 73 nM.

`C[C@H](NC(=O)[C@H](CCCCN)NC(=O)[C@H](Cc1ccccc1)NC(=O)[C@H](CCCCN)NC(=O)[C@H](CC(=O)O)NC(=O)[C@H](CCCNC(=N)N)NC(=O)[C@H](CC(N)=O)NC(=O)[C@@H](N)Cc1ccc(O)cc1)C(=O)N[C@@H](Cc1ccccc1)C(=O)O` [3102.0564] (H-YNRDKFKAF-OH) yielded an IC50 of 20 nM.

Compound `CC(C)C[C@H](NC(=O)[C@H](Cc1ccccc1)NC(=O)[C@H](C)NC(=O)[C@H](Cc1ccccc1)NC(=O)[C@H](CCCNC(=N)N)NC(=O)[C@H](Cc1ccc(O)cc1)NC(=O)[C@H](CCCNC(=N)N)NC(=O)[C@H](CC(N)=O)NC(=O)[C@@H](N)CC(N)=O)C(=O)O` [3102.0568] (H-NNRYRFAFL-OH) gave an IC50 of 31 nM.

In turn, `CC(C)[C@H](NC(=O)[C@H](CC(N)=O)NC(=O)[C@H](C)NC(=O)[C@H](Cc1ccccc1)NC(=O)[C@H](CCCCN)NC(=O)[C@H](CCCCN)NC(=O)[C@H](Cc1c[nH]cn1)NC(=O)[C@H](CCCNC(=N)N)NC(=O)[C@@H](N)CC(N)=O)C(=O)O` [3102.0572] (H-NRHKKFANV-OH) displayed an IC50 of 36 nM.

For `CC[C@H](C)[C@H](NC(=O)[C@@H]1CCCN1C(=O)[C@@H](NC(=O)[C@H](Cc1c[nH]cn1)NC(=O)[C@H](Cc1ccc(O)cc1)NC(=O)[C@H](CCCCN)NC(=O)[C@H](CCCNC(=N)N)NC(=O)[C@@H](N)Cc1ccc(O)cc1)C(C)C)C(=O)N[C@@H](CCSC)C(=O)O` [3102.0573] (H-YRKYHVPIM-OH), the IC50 was found to be 62 nM.

In turn, `CC[C@H](C)[C@H](NC(=O)[C@H](CCCNC(=N)N)NC(=O)[C@H](CCCNC(=N)N)NC(=O)[C@H](CCSC)NC(=O)[C@H](CC(C)C)NC(=O)[C@H](C)NC(=O)[C@@H](N)CC(N)=O)C(=O)N[C@@H](C)C(=O)N[C@H](C(=O)O)C(C)C` [3102.0577] (H-NALMRRIAV-OH) registered an IC50 of 17 nM.

As to `CC[C@H](C)[C@H](NC(=O)[C@H](Cc1ccc(O)cc1)NC(=O)[C@@H](NC(=O)[C@H](CCCCN)NC(=O)[C@H](CCCCN)NC(=O)[C@H](Cc1ccccc1)NC(=O)[C@H](CCCNC(=N)N)NC(=O)[C@@H](N)CO)C(C)C)C(=O)N[C@@H](CC(C)C)C(=O)O` [3102.0579] (H-SRFKKVYIL-OH), the IC50 stood at 76 nM.

Compound `CC[C@H](C)[C@H](NC(=O)[C@H](Cc1c[nH]cn1)NC(=O)[C@H](Cc1ccccc1)NC(=O)[C@H](CCCCN)NC(=O)[C@H](CC(C)C)NC(=O)[C@H](CCCNC(=N)N)NC(=O)[C@H](CS)NC(=O)[C@@H](N)Cc1c[nH]c2ccccc12)C(=O)N[C@H](C(=O)O)C(C)C` [3102.0584] (H-WCRLKFHIV-OH) yielded an IC50 of 82 nM.

With `CC[C@H](C)[C@H](NC(=O)[C@H](CO)NC(=O)[C@@H](NC(=O)[C@H](CC(C)C)NC(=O)[C@H](CCCCN)NC(=O)[C@H](CCSC)NC(=O)[C@H](CCCCN)NC(=O)[C@@H](NC(=O)[C@@H](N)CO)[C@@H](C)CC)C(C)C)C(=O)O` [3102.0585] (H-SIKMKLVSI-OH), the IC50 worked out at 16 nM.

`CSCC[C@H](NC(=O)[C@H](CCC(N)=O)NC(=O)[C@@H](N)CO)C(=O)N[C@@H](CCC(=O)O)C(=O)N[C@@H](CCCNC(=N)N)C(=O)N[C@@H](Cc1ccccc1)C(=O)N[C@@H](CC(N)=O)C(=O)N[C@@H](CS)C(=O)N[C@@H](CO)C(=O)O` [3102.0586] (H-SQMERFNCS-OH) had an IC50 of 39 nM.

The compound `CC(C)C[C@H](NC(=O)[C@H](Cc1ccccc1)NC(=O)[C@H](Cc1ccc(O)cc1)NC(=O)[C@H](CC(C)C)NC(=O)[C@H](CCCNC(=N)N)NC(=O)[C@H](CCC(N)=O)NC(=O)[C@H](CC(C)C)NC(=O)[C@H](Cc1ccccc1)NC(=O)[C@@H](N)Cc1ccccc1)C(=O)O` [3102.0589] (H-FFLQRLYFL-OH) returned an IC50 of 6.8 nM.

`CC[C@H](C)[C@H](NC(=O)[C@@H](NC(=O)[C@H](CO)NC(=O)[C@H](CCCNC(=N)N)NC(=O)[C@H](CCC(=O)O)NC(=O)[C@H](CCCCN)NC(=O)[C@H](CCSC)NC(=O)[C@@H](N)CCSC)[C@@H](C)O)C(=O)N[C@@H](CC(C)C)C(=O)O` [3102.0596] (H-MMKERSTIL-OH) had an IC50 of 35 nM.

As for `CC[C@H](C)[C@H](NC(=O)[C@H](CCCNC(=N)N)NC(=O)[C@H](CCC(=O)O)NC(=O)[C@H](CCCCN)NC(=O)[C@H](CCSC)NC(=O)[C@@H](N)CC(C)C)C(=O)N[C@@H](CO)C(=O)N[C@@H](CO)C(=O)N[C@@H](CCC(=O)O)C(=O)O` [3102.0597] (H-LMKERISSE-OH), the midpoint of inhibition, the IC50, lay at 82 nM.

On to `CC[C@H](C)[C@H](NC(=O)[C@@H]1CCCN1C(=O)[C@H](CCCNC(=N)N)NC(=O)[C@H](CCCNC(=N)N)NC(=O)[C@H](CCC(=O)O)NC(=O)[C@H](CCCCN)NC(=O)[C@H](CCSC)NC(=O)[C@@H](N)[C@@H](C)O)C(=O)N[C@@H](CC(C)C)C(=O)O` [3102.0600] (H-TMKERRPIL-OH), for which the IC50 was 1.8 nM.

`CC(C)C[C@H](NC(=O)CNC(=O)[C@@H](N)CC(N)=O)C(=O)N[C@H](C(=O)N[C@@H](CCCNC(=N)N)C(=O)N[C@@H](CC(C)C)C(=O)N[C@@H](CC(N)=O)C(=O)N[C@@H](C)C(=O)N[C@@H](Cc1ccccc1)C(=O)O)C(C)C` [3102.0603] (H-NGLVRLNAF-OH) yielded an IC50 of 57 nM.

Turning to `CSCC[C@H](N)C(=O)N[C@@H](Cc1ccc(O)cc1)C(=O)N[C@@H](CCCCN)C(=O)N[C@@H](CO)C(=O)N[C@@H](CCCNC(=N)N)C(=O)N[C@H](C(=O)N[C@@H](CCC(=O)O)C(=O)N[C@@H](CCCNC(=N)N)C(=O)N[C@H](C(=O)O)C(C)C)C(C)C` [3102.0607] (H-MYKSRVERV-OH), the IC50 came to 47 nM.

As to `CC(C)C[C@H](NC(=O)[C@@H]1CCCN1C(=O)[C@H](CCCNC(=N)N)NC(=O)[C@H](Cc1ccccc1)NC(=O)[C@H](CCCCN)NC(=O)[C@H](CCCCN)NC(=O)[C@H](CCCNC(=N)N)NC(=O)[C@H](Cc1ccc(O)cc1)NC(=O)[C@@H](N)Cc1ccccc1)C(=O)O` [3102.0608] (H-FYRKKFRPL-OH), the midpoint of inhibition, the IC50, lay at 0.088 nM.

Compound `CC[C@H](C)[C@H](NC(=O)[C@H](CCSC)NC(=O)[C@H](CC(C)C)NC(=O)[C@@H]1CCCN1C(=O)[C@@H](N)CCCNC(=N)N)C(=O)N[C@@H](Cc1ccccc1)C(=O)N[C@@H](CCSC)C(=O)N[C@@H](CO)C(=O)NCC(=O)O` [3102.0609] (H-RPLMIFMSG-OH) displayed an IC50 of 12 nM.

On to `CC(C)C[C@H](NC(=O)[C@H](CCCNC(=N)N)NC(=O)[C@@H](NC(=O)[C@H](Cc1ccccc1)NC(=O)[C@H](Cc1c[nH]cn1)NC(=O)CNC(=O)[C@H](CCCCN)NC(=O)[C@H](CC(N)=O)NC(=O)[C@@H](N)Cc1ccccc1)[C@@H](C)O)C(=O)O` [3102.0610] (H-FNKGHFTRL-OH), for which it took 16 nM to reach half-maximal inhibition (IC50).

The compound `CSCC[C@H](NC(=O)[C@@H](NC(=O)[C@H](CS)NC(=O)[C@H](CCCCN)NC(=O)[C@H](CCC(N)=O)NC(=O)[C@H](CC(C)C)NC(=O)[C@H](CCCCN)NC(=O)[C@H](CC(C)C)NC(=O)[C@@H](N)CCSC)C(C)C)C(=O)O` [3102.0611] (H-MLKLQKCVM-OH) returned an IC50 of 9.3 nM.

Turning to `CC[C@H](C)[C@H](NC(=O)[C@H](CO)NC(=O)[C@H](Cc1ccccc1)NC(=O)[C@H](CC(C)C)NC(=O)[C@@H](NC(=O)[C@H](CCCNC(=N)N)NC(=O)[C@H](CC(C)C)NC(=O)[C@@H](N)Cc1c[nH]cn1)C(C)C)C(=O)N[C@@H](Cc1ccccc1)C(=O)O` [3102.0612] (H-HLRVLFSIF-OH), inhibition was half-maximal at 4.7 nM (IC50).

`CC(C)C[C@H](NC(=O)[C@@H]1CCCN1C(=O)[C@@H](N)CO)C(=O)N[C@@H](CO)C(=O)N[C@@H](CCCCN)C(=O)N[C@@H](CS)C(=O)N[C@H](C(=O)N[C@H](C(=O)N[C@H](C(=O)O)C(C)C)C(C)C)C(C)C` [3102.0613] (H-SPLSKCVVV-OH) returned an IC50 of 31 nM.

For the compound `CC[C@H](C)[C@H](NC(=O)[C@H](CO)NC(=O)[C@@H](NC(=O)[C@@H](NC(=O)[C@H](Cc1c[nH]c2ccccc12)NC(=O)[C@H](CCCCN)NC(=O)[C@H](CCSC)NC(=O)[C@@H](N)CCSC)[C@@H](C)CC)[C@@H](C)CC)C(=O)N[C@@H](CC(C)C)C(=O)O` [3102.0616] (H-MMKWIISIL-OH), the IC50 worked out at 1.3 nM.

`CC(C)C[C@H](NC(=O)[C@H](CO)NC(=O)CNC(=O)[C@H](Cc1ccc(O)cc1)NC(=O)[C@H](CCCCN)NC(=O)[C@H](Cc1c[nH]cn1)NC(=O)[C@H](CCCCN)NC(=O)[C@H](CC(C)C)NC(=O)[C@@H](N)Cc1ccccc1)C(=O)O` [3102.0617] (H-FLKHKYGSL-OH) returned an IC50 of 0.14 nM.

`CC[C@H](C)[C@H](NC(=O)[C@@H](NC(=O)[C@H](CC(C)C)NC(=O)[C@H](Cc1ccccc1)NC(=O)[C@H](Cc1c[nH]cn1)NC(=O)[C@@H](NC(=O)[C@@H](NC(=O)[C@H](CCCCN)NC(=O)[C@@H](N)CCC(=O)O)[C@@H](C)CC)[C@@H](C)CC)[C@@H](C)O)C(=O)O` [3102.0618] (H-EKIIHFLTI-OH) had an IC50 of 5 nM.

Turning to `CSCC[C@H](NC(=O)[C@H](CS)NC(=O)[C@H](CCCNC(=N)N)NC(=O)[C@H](Cc1ccc(O)cc1)NC(=O)[C@H](CCCCN)NC(=O)[C@H](CCCCN)NC(=O)[C@@H](N)CC(N)=O)C(=O)N[C@@H](C)C(=O)N[C@@H](CC(C)C)C(=O)O` [3102.0619] (H-NKKYRCMAL-OH), the IC50 came out at 1.9 nM.

A word on the IC50: it is the concentration needed to halve the response being measured. Read a high IC50 as lower potency.
